Data published in patent US12624018B1, “Inhibitors of RIPK2 and medical uses thereof” (Odyssey Therapeutics, Inc., priority 2022, dated 2026).

Biological target: T1, RIPK2 enzyme (Homo sapiens, UniProt O43353)
T1 construct: purchased Carna 09-128
Experiment: RIPK2 inhibition (ADP-Glo Kinase Assay)
Assay type: biochemical
Conditions: RIPK2 5 nM, ATP 150 μM, MBP substrate, read-out: RIPK2 IC50
Procedure, shortened: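 Human RIPK2 (5 nM) preincubated with compound 30 min at room temperature in 50 mM HEPES pH 7.5, 10 mM MgCl2, 2 mM DTT, 1 mM EGTA, 0.01% Brij-35, 0.05% BSA; native swine MBP as substrate. ADP formed quantified by ADP-Glo luminescence; percent inhibition relative to DMSO and no-enzyme controls.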

T1 sequence (O43353 1-299 limits assumed): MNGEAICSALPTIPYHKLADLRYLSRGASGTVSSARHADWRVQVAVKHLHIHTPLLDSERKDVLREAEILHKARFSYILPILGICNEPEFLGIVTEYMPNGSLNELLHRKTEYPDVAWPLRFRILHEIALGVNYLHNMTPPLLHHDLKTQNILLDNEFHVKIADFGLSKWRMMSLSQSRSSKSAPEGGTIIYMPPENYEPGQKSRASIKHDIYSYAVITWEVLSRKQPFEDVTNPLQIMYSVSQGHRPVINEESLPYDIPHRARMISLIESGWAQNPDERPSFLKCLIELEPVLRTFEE

Compound | IC50
Cc1c(Oc2ccnc3ccc(NS(C)(=O)=O)cc23)ccc(CC(=O)Nc2cnn(C(C)(C)C)c2)c1F [Compound 277, N-(1-(tert-butyl)-1H-pyrazol-4-yl)-2-(2-fluoro-3-methyl-4-((6-(methylsulfonamido)quinolin-4-yl)oxy)phenyl) acetamide] | < 2.5 nM
Cc1cc(CC(=O)Nc2cnn(C(C)(C)C)c2)ccc1Oc1ccnc2ccc(C(=O)N3CC(F)C3)cc12 [Compound 208, N-(1-(tert-butyl)-1H-pyrazol-4-yl)-2-(4-((6-(3-fluoro-azetidine-1-carbonyl)quinolin-4-yl)oxy)-3-methyl-phenyl) acetamide] | < 2.5 nM
Cc1cc(CC(=O)Nc2cnn(C3CCC3)c2)ccc1Oc1ccnc2ccc(S(C)(=O)=O)cc12 [Compound 213, N-(1-cyclobutyl-1H-pyrazol-4-yl)-2-(3-methyl-4-((6-(methylsulfonyl)quinolin-4-yl)oxy)phenyl)acetamide] | < 2.5 nM
Cc1c(Oc2ccnc3ccc(S(=O)(=O)C4CC(N)C4)cc23)ccc(CC(=O)Nc2cnn(C(C)(C)C)c2)c1F (single isomer, unassigned) [Compound 288, 2-(4-((6-((-3-aminocyclobutyl)sulfonyl)quinolin-4-yl)oxy)-2-fluoro-3-methylphenyl)-N-(1-(tert-butyl)-1H-pyrazol-4-yl)acetamide] | < 2.5 nM
CC(C)(C)n1cc(NC(=O)Cc2ccc(Oc3ncnc4ccc(OC5CCNCC5)cc34)c(F)c2F)cn1 [Compound 169, N-(1-(tert-butyl)-1H-pyrazol-4-yl)-2-(2,3-difluoro-4-((6-(piperidin-4-yloxy)quinazolin-4-yl)oxy)phenyl) acetamide] | < 2.5 nM
Cc1c(Oc2ccnc3ccc(S(=O)(=O)C4CC(O)C4)cc23)ccc(CC(=O)Nc2cnn(C(C)(C)C)c2)c1F (single isomer, unassigned) [Compound 285, N-(1-(tert-butyl)-1H-pyrazol-4-yl)-2-(2-fluoro-4-((6-((-3-hydroxycyclobutyl)sulfonyl)quinolin-4-yl)oxy)-3-methylphenyl)acetamide] | < 2.5 nM
CC(C)(C)n1cc(NC(=O)Cc2ccc(Oc3ccnc4ccc(-n5ccccc5=O)cc34)cc2F)cn1 [Compound 157, N-(1-(tert-butyl)-1H-pyrazol-4-yl)-2-(2-fluoro-4-((6-(2-oxopyridin-1(2H)-yl)quinolin-4-yl)oxy)phenyl) acetamide] | 5.2 nM
CC(C)(C)n1cc(NC(=O)Cc2ncc(Oc3ncnc4ccc(O[C@H]5C[C@H]6CC[C@@H](C5)N6)cc34)cc2F)cn1 [Compound 289, 2-(5-((6-(((1R,3r,5S)-8-azabicyclo[3.2.1]octan-3-yl)oxy)quinazolin-4-yl)oxy)-3-fluoropyridin-2-yl)-N-(1-(tert-butyl)-1H-pyrazol-4-yl)acetamide] | 4.3 nM
Cc1c(Oc2ccnc3ccc(S(=O)(=O)C4CCC4)cc23)ccc(CC(=O)Nc2cnn(C(C)(C)C)c2)c1F [Compound 284, N-(1-(tert-butyl)-1H-pyrazol-4-yl)-2-(4-((6-(cyclobutylsulfonyl)quinolin-4-yl)oxy)-2-fluoro-3-methylphenyl)acetamide] | < 2.5 nM
CNC(=O)c1ccc2ncnc(Oc3ccc(CC(=O)Nc4cnn(C(C)(C)C)c4)c(F)c3)c2c1 [Compound 25, 4-(4-(2-((1-(tert-butyl)-1H-pyrazol-4-yl)amino)-2-oxoethyl)-3-fluoro-phenoxy)-N-methyl-quinazoline-6-carboxamide] | 4.3 nM
COCCNC(=O)c1ccc2nccc(Oc3ccc(CC(=O)Nc4cnn(C(C)(C)C)c4)c(F)c3C)c2c1 [Compound 342, 4-(4-(2-((1-(tert-butyl)-1H-pyrazol-4-yl)amino)-2-oxoethyl)-3-fluoro-2-methyl-phenoxy)-N-(2-methoxyethyl) quinoline-6-carboxamide] | < 2.5 nM
Cc1cc(CC(=O)Nc2cnn(C(C)(C)C)c2)ccc1Oc1ccnc2ccc(C(=O)N3CC(C#N)C3)cc12 [Compound 209, N-(1-(tert-butyl)-1H-pyrazol-4-yl)-2-(4-((6-(3-cyano-azetidine-1-carbonyl)quinolin-4-yl)oxy)-3-methyl-phenyl) acetamide] | < 2.5 nM
CC(C)(C)n1cc(NC(=O)Cc2ccc(Oc3ncnc4ccc(OCCN5CCCC5)cc34)cc2F)cn1 [Compound 17, N-(1-(tert-butyl)-1H-pyrazol-4-yl)-2-(2-fluoro-4-((6-(2-(pyrrolidin-1-yl)ethoxy)quinazolin-4-yl)oxy)phenyl) acetamide] | 27.4 nM

Other lines, results leading:

IC50 | Compound
7.9 nM | CN1CC(Oc2ccc3ncnc(Oc4ccc(CC(=O)Nc5cnn(C(C)(C)C)c5)c(F)c4)c3c2)C1 [Compound 18, N-(1-(tert-butyl)-1H-pyrazol-4-yl)-2-(2-fluoro-4-((6-((1-methyl-azetidin-3-yl)oxy)quinazolin-4-yl)oxy)phenyl) acetamide]
< 2.5 nM | Cc1cc(CC(=O)Nc2cnn(C(C)(C)C)c2)ccc1Oc1ccnc2ccc(CN3CCNCC3)cc12 [Compound 252, N-(1-(tert-butyl)-1H-pyrazol-4-yl)-2-(3-methyl-4-((6-(piperazin-1-ylmethyl)quinolin-4-yl)oxy)phenyl)acetamide]
< 2.5 nM | COc1cc2nccc(Oc3ccc(CC(=O)Nc4cnn(C(C)(C)C)c4)cc3C)c2cc1S(C)(=O)=O [Compound 216, N-(1-(tert-butyl)-1H-pyrazol-4-yl)-2-(4-((7-methoxy-6-(methylsulfonyl)quinolin-4-yl)oxy)-3-methylphenyl) acetamide]
< 2.5 nM | Cc1cc(CC(=O)Nc2cnn(C(C)(C)C)c2)c(F)cc1Oc1ccnc2ccc(C(=O)N(CCO)CCO)cc12 [Compound 366, 4-(4-(2-((1-(tert-butyl)-1H-pyrazol-4-yl)amino)-2-oxoethyl)-5-fluoro-2-methyl-phenoxy)-N,N-bis(2-hydroxyethyl) quinoline-6-carboxamide]
21.8 nM | COc1ccc2ncnc(Oc3cnc(CC(=O)Nc4cnn(C(C)(C)C)c4)c(F)c3)c2c1 [Compound 9, N-(1-(tert-butyl)-1H-pyrazol-4-yl)-2-(3-fluoro-5-((6-methoxyquinazolin-4-yl)oxy)pyridin-2-yl)acetamide]
< 2.5 nM | CC(=O)N1CC(Oc2ccc3nccc(Oc4ccc(CC(=O)Nc5cnn(C(C)(C)C)c5)cc4C)c3c2)C1 [Compound 229, 2-(4-((6-((1-acetylazetidin-3-yl)oxy)quinolin-4-yl)oxy)-3-methyl-phenyl)-N-(1-(tert-butyl)-1H-pyrazol-4-yl)acetamide]
< 2.5 nM | CN1CCC(Oc2ccc3nccc(Oc4ccc(CC(=O)Nc5cnn(C(C)(C)C)c5)c(F)c4F)c3c2)CC1 [Compound 166, N-(1-(tert-butyl)-1H-pyrazol-4-yl)-2-(2,3-difluoro-4-((6-((1-methyl-piperidin-4-yl)oxy)quinolin-4-yl)oxy)phenyl) acetamide]
< 2.5 nM | Cc1cc(CC(=O)Nc2cnn(C(C)(C)C)c2)ccc1Oc1ccnc2ccc(S(=O)(=O)N3CC(F)C3)cc12 [Compound 259, N-(1-(tert-butyl)-1H-pyrazol-4-yl)-2-(4-((6-((3-fluoroazetidin-1-yl)sulfonyl)quinolin-4-yl)oxy)-3-methylphenyl)acetamide]
< 2.5 nM | Cc1cc(CC(=O)Nc2cnn(C(C)(C)C)c2)c(F)cc1Oc1ccnc2ccc(C(=O)NCC(F)(F)F)cc12 [Compound 362, 4-(4-(2-((1-(tert-butyl)-1H-pyrazol-4-yl)amino)-2-oxoethyl)-5-fluoro-2-methyl-phenoxy)-N-(2,2,2-trifluoroethyl) quinoline-6-carboxamide]
< 2.5 nM | Cc1cc(CC(=O)Nc2cnn(C(C)(C)C)c2)c(F)cc1Oc1ccnc2ccc(C(=O)NC3CC(C#N)C3)cc12 (single isomer, unassigned) [Compound 395, 4-(4-(2-((1-(tert-butyl)-1H-pyrazol-4-yl)amino)-2-oxoethyl)-5-fluoro-2-methyl-phenoxy)-N-(-3-cyano-cyclobutyl) quinoline-6-carboxamide]
45.7 nM | CN1CC[C@@H](Oc2ccc3ncnc(Oc4cnc(CC(=O)Nc5cnn(C(C)(C)C)c5)c(F)c4)c3c2)C1 [Compound 60, (R)-N-(1-(tert-butyl)-1H-pyrazol-4-yl)-2-(3-fluoro-5-((6-((1-methylpyrrolidin-3-yl)oxy)quinazolin-4-yl)oxy)pyridin-2-yl)acetamide]
< 2.5 nM | Cc1c(Oc2ccnc3ccc(C(O)CO)cc23)ccc(CC(=O)Nc2cnn(C(C)(C)C)c2)c1F (centres unmarked) [Compound 444, N-(1-(tert-butyl)-1H-pyrazol-4-yl)-2-(4-((6-(1,2-dihydroxyethyl)quinolin-4-yl)oxy)-2-fluoro-3-methylphenyl)acetamide]
< 2.5 nM | Cc1cc(CC(=O)Nc2cnn(C(C)(C)C)c2)c(F)cc1Oc1ccnc2ccc(-c3cccnn3)cc12 [Compound 426, N-(1-(tert-butyl)-1H-pyrazol-4-yl)-2-(2-fluoro-5-methyl-4-((6-(pyridazin-3-yl)quinolin-4-yl)oxy)phenyl)acetamide]
< 2.5 nM | Cc1cc(CC(=O)Nc2cnn(C(C)(C)C)c2)ccc1Oc1ccnc2ccc(OC3CCN(C4CC4)CC3)cc12 [Compound 95, N-(1-(tert-butyl)-1H-pyrazol-4-yl)-2-(4-((6-((1-cyclopropyl-piperidin-4-yl)oxy)quinolin-4-yl)oxy)-3-methylphenyl) acetamide]
< 2.5 nM | CCS(=O)(=O)c1ccc2nccc(Oc3cc(F)c(CC(=O)Nc4cnn(C(C)(C)C)c4)cc3Cl)c2c1 [Compound 430, N-(1-(tert-butyl)-1H-pyrazol-4-yl)-2-(5-chloro-4-((6-(ethylsulfonyl)quinolin-4-yl)oxy)-2-fluorophenyl)acetamide]
18.7 nM | CC(C)(C)n1cc(NC(=O)Cc2ncc(Oc3ncnc4ccc(OC5CCNCC5)cc34)cc2F)cn1 [Compound 51, N-(1-(tert-butyl)-1H-pyrazol-4-yl)-2-(3-fluoro-5-((6-(piperidin-4-yloxy)quinazolin-4-yl)oxy)pyridin-2-yl)acetamide]
